Results as given in patent US20240100063A1, “COMBINATION THERAPY OF PD-1 AXIS BINDING ANTAGONISTS AND LRRK2 INHITIBORS” (Hoffmann-La Roche Inc., priority 2020, published 2024).
“Also recorded” adds a separate entry of the source.

Legend:
DC2.4 SCR cells = assay: antigen cross-presentation assay on DC2.4 cells (FACS, anti-mouse H-2Kb/[…] antibody); assay type: cell-based; conditions: overnight administration
Procedure: (§1) Cells were stained with anti-mouse H-2Kb/[…] antibody. […] F) FACS evaluation of human MART-1 T cell proliferation, upon co-culture with human cord blood derived dendritic cells pre-treated with the LRRK2 inhibitor LRRK2-IN-1. All the experiments were performed in triplicates.
(§2) Subsequently, we investigate whether the pre-treatment of freshly isolated mouse splenic dendritic cells with increasing concentrations of the compounds can enhance the OT-1 CD8a T cells activation upon co-culture. […] Finally, as for the genetic validation in DC2.4, we challenge the splenic derived dendritic cells treated with the different compounds in a killing assay were we measured the MC38 RFP-OVA cancer cell viability upon 6 days of co-culture with OT-1 CD8a T cells primed by mouse splenic dendritic cells pre-treated with the two LRRK2 inhibitors (FIG. 5-A).

MART-1 T Cells = assay: MART-1 T cell proliferation upon co-culture with pre-treated human cord blood derived dendritic cells; assay type: cell-based; conditions: human MART-1 T cells primed by human cord blood derived dendritic cells, FIG. 4-F
Procedure: as §1, §2

MV3 cancer cells = assay: killing assay: MV3 viability upon co-culture with MART-1 T cells primed by pre-treated human cord blood derived dendritic cells; assay type: cell-based; conditions: 6 days killing assay, increasing concentration, human setting
Text: (§3) A, E) Schematic representation of the killing assay experimental setup respectively in mouse and human setting. […] Data are normalized to DMSO treated dendritic cells co-cultured with CD8a T cells. F) Evaluation of MV3 cancer cells viability upon co-cultured with MART-1 T Cells primed by human cord blood derived dendritic cells pre-treated with the LRRK2 inhibitor LRRK2-IN-1. Data are normalized to MV3 cells co-cultured with T cells primed in the absence of MART1 peptide. All the experiments were performed in triplicates.
as §2

[1] = tested on: MC38 RFP-OVA cancer cells
Text: as §3, §2

MC-38 tumor cells [2] = assay: in vivo tumor growth, immunocompetent C57BL/6 mice engrafted with MC-38 tumor cells; conditions: anti-PD-L1 10 mg/kg i.v. once then 5 mg/kg i.p. twice per week; for MC-38 tumor growth in comparison with vehicle treated mice: PFE-360 7.5 mg/kg, Mli-2 10 mg/kg per os twice per day, day zero to day 28
Procedure: (§4) The experiment was carried out with 6-8 weeks female C57BL/6 mice from Janvier Labs. All procedures described in this study have been reviewed and approved by the local ethic committee (CELEAG) and validated by the French Ministry of Research. Mice was hosted in TCS BSL-2 facility by groups of 5 individuals. Mice were allowed to acclimate to the environment for 5 days prior to the beginning of the experiment. During the efficacy study, mice were monitored daily for unexpected signs of distress. Body weight was monitored 3 times a week. Mice with a cumulative clinical score or with a body weight loss >25% were sacrificed.
Mice were injected subcutaneously with 0.5×10^6 MC-38 tumor cells in 50% Matrigel. Tumor cell engraftment was defined as day zero. At day 8, mice were randomized into 4 groups of 10 mice each, according to the tumor volume. Treatments were initiated at day 9, when the average tumor volume reached ˜150 mm3 as follows: • Group 1: vehicle, dose 200 μL twice per day per os, twice per week intraperitoneal and intravenously once at day 8 • Group 2: 7915: dose 300 mg/kg per os administration twice per day. • Group 3: anti PD-L1 (clone 6E11, atezolizumab mouse surrogate): dose 10 mg/kg intravenous injection once at day 8 and dose 5 mg/kg intraperitoneal injection twice per week. • Group 4: 7915+anti-PD-L1 (clone 6E11, atezolizumab mouse surrogate): dose 300 mg/kg per os injection twice per day. Anti PD-L1: dose 10 mg/kg intravenous injection once at day 8 and dose 5 mg/kg intraperitoneal injection twice per week.
7915 (cat. num. HY-18163 from MedChemExpress). LRRK2 inhibitor was administered as free base suspensions in vehicle [1% (w/v) Avicel RC-591 and 0.2% (v/v) polysorbate 80 (Tween 80) in reverse osmosis water].
The aim of this study was to address the in vivo effect on tumor progression of LRRK2 kinase inhibition by using the LRRK2 inhibitor 7915, alone or in combination with anti-PD-L1, in immunocompetent mice engrafted with MC-38 tumor cells. C57BL/6 mice were injected subcutaneously with 0.5×10^6 MC-38 tumor cells. Tumor cell engraftment was defined as day zero. […]

MC-38 tumor cells [3] = assay: in vivo tumor growth, immuno-deficient NSG mice engrafted with MC-38 tumor cells; set-up: species or system mouse
Procedure: as §4, with “NSG” for “C57BL/6”, “Jackson Laboratory.” for “Janvier Labs.”
Mice were injected subcutaneously with 0.5×10^6 MC-38 tumor cells in 50% Matrigel. Tumor cell engraftment was defined as day zero. At day 9, mice were randomized into 2 groups of 12 mice each, according to the tumor volume. Treatments were initiated at day 10, when the average tumor volume reached ˜150 mm3 as follows: • Group 1: vehicle, dose 200 μL twice per day per os • Group 2: GNE-7915: dose 300 mg/kg per os administration twice per day.
GNE-7915 (cat. num. HY-18163 from MedChemExpress). LRRK2 inhibitor was administered as free base suspensions in vehicle [1% (w/v) Avicel RC-591 and 0.2% (v/v) polysorbate 80 (Tween 80) in reverse osmosis water].
The aim of this study was to address the in vivo effect on tumor progression of LRRK2 kinase inhibition by using the LRRK2 inhibitor GNE-7915, in immuno-deficient mice engrafted with MC-38 tumor cells. NSG mice were injected subcutaneously with 0.5×10^6 MC-38 tumor cells. Tumor cell engraftment was defined as day zero. At day 9, mice were randomized into 2 groups.
Mice were injected subcutaneously with 0.5×10^6 MC-38 tumor cells in 50% Matrigel. Tumor cell engraftment was defined as day zero. At day 9, mice were randomized into 2 groups of 12 mice each, according to the tumor volume.
PFE-360 (cat. num. HY-120085 from MedChemExpress). […] LRRK2 inhibitors were administered as free base suspensions in vehicle [1% (w/v) Avicel RC-591 and 0.2% (v/v) polysorbate 80 (Tween 80) in reverse osmosis water]. […]

403 non-mutated kinases = assay: KINOMEScan in vitro kinase selectivity assay; assay type: binding, human; conditions: for number of different kinases whose binding is inhibited by 90% or more: at 0.1 μM, 403 non-mutated kinases; for number of unrelated kinases inhibited to >90%: at lowest concentration to inhibit >90 LRRK2 (0.1 uM)
Procedure: FIG. 10: In vitro kinase selectivity test. […] As a reference, the pan-kinase inhibitor sunitinib was tested.
As a reference, the pan-kinase inhibitor sunitinib was tested.
Kinases other than LRRK2 are herein referred to as unrelated kinases. A selectivity score S can be determined to quantify selectivity, as shown in Example 8. In one embodiment, the selectivity score S(65) of the inhibitor (e.g. the LRRK2 inhibitor) is defined as the ratio of number of kinases inhibited by 65% of binding to their ligand as compared to binding to their ligand without the inhibitor divided by the number of kinases tested. In one embodiment, the selectivity score S(90) of the inhibitor (e.g. the LRRK2 inhibitor) is defined as the ratio of number of kinases inhibited by 90% of binding to their ligand as compared to binding to their ligand without the inhibitor divided by the number of kinases tested. In one embodiment, the selectivity score S(99) of the inhibitor (e.g. the LRRK2 inhibitor) is defined as the ratio of number of kinases inhibited by 99% of binding to their ligand as compared to binding to their ligand without the inhibitor divided by the number of kinases tested. In one embodiment, the selectivity score S is determined for a specified concentration (e.g., 0.1 μM, 1 μM, or 10 μM) of the inhibitor (e.g. the LRRK2 inhibitor). Kinase—ligand binding (and inhibition thereof) can be measured using assays as known in the art and hereinbefore described and as described in Example 8.
(§5) The in vitro kinase selectivity for the tested compounds were determined by running a KINOMEScan® (DiscoverX, CA, USA). […] Selectivity scores S(65), S(90) and S (99) in FIG. 11 are calculated as the ratio of number of non-mutated kinases inhibited by 65%, 90 or 99% divided by the total number of non-mutated kinases tested.

LRRK2 = LRRK2 (Homo sapiens, UniProt Q5S007); assay: KINOMEScan in vitro kinase selectivity assay, LRRK2; assay type: binding
Chain of LRRK2 (Q5S007 whole entry): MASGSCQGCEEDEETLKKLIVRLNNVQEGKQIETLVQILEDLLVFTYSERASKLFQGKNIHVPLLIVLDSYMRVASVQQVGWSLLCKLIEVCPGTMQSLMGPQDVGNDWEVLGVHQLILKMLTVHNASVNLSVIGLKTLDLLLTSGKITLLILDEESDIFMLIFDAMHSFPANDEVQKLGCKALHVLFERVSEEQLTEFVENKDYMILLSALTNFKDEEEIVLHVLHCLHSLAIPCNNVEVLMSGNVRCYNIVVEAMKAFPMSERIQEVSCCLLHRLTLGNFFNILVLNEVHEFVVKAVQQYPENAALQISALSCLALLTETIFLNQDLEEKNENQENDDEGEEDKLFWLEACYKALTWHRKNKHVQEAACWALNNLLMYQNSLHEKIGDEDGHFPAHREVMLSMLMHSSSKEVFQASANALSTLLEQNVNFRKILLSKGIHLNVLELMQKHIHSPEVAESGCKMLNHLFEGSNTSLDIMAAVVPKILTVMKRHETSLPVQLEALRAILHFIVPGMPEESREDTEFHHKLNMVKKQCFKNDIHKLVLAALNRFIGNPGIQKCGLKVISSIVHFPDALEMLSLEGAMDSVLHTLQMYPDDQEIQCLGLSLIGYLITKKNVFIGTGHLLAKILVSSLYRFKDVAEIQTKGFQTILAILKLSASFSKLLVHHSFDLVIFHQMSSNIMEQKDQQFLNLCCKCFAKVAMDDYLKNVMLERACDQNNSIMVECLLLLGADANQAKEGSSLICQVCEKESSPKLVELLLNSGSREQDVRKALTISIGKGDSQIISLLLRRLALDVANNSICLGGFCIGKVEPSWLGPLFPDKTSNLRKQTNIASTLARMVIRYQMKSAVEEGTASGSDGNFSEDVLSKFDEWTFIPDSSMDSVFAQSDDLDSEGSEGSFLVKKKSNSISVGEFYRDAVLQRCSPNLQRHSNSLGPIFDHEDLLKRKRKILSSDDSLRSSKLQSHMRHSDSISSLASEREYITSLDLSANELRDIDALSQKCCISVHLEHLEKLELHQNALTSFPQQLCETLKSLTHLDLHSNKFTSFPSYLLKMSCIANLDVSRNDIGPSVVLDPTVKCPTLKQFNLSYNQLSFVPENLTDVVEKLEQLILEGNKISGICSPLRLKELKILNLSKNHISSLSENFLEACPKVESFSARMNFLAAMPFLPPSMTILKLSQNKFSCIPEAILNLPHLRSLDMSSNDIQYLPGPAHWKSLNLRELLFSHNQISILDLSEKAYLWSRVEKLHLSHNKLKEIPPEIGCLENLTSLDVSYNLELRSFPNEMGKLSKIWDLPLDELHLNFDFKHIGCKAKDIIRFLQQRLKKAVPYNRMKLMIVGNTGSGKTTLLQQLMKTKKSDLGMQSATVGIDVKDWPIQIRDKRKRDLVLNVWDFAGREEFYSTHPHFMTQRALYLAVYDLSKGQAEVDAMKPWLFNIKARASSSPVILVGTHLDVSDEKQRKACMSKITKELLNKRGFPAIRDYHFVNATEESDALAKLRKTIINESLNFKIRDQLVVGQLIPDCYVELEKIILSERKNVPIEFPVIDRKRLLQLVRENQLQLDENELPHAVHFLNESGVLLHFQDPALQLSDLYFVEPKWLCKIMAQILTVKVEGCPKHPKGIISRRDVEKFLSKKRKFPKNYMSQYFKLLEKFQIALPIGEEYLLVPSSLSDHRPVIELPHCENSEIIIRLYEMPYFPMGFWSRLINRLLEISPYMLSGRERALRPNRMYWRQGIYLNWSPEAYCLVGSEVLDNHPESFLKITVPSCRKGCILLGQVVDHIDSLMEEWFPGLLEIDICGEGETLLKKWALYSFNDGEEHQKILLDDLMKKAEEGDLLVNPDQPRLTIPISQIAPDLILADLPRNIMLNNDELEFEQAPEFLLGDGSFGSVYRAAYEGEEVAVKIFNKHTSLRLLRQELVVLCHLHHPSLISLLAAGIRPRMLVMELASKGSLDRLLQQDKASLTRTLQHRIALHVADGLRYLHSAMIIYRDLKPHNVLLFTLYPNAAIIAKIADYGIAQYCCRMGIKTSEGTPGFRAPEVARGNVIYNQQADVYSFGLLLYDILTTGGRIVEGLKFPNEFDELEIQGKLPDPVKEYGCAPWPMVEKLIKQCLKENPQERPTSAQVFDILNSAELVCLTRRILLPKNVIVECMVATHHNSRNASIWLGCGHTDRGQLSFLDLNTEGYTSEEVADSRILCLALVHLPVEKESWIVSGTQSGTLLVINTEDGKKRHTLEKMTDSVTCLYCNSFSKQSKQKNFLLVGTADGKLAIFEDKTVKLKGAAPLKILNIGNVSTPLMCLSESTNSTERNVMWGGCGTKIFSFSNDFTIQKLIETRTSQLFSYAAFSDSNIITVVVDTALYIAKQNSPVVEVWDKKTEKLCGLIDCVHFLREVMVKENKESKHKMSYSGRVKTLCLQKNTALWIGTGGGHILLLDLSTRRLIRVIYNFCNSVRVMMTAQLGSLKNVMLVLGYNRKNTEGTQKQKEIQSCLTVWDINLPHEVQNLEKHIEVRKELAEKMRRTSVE
Procedure: as §5

OT-1 CD8a T cells = assay: OT-1 CD8a T cell proliferation upon co-culture with dendritic cells pre-treated with LRRK2 inhibitors; assay type: cell-based, mouse
Procedure: as §1, §2

[4] = PFE-360 7.5 mg/kg, Mli-2 10 mg/kg per os twice per day, day zero to day 24

Row | SMILES | T cell mediated cytotoxicity (MC38 RFP-OVA cancer cell viability) [1] | MC-38 tumor growth in comparison with vehicle treated mice (MC-38 tumor cells [2]) | MC-38 tumor growth in comparison with vehicle treated mice (MC-38 tumor cells [3]; [4]) | number of different kinases whose binding is inhibited by 90% or more (403 non-mutated kinases) | number of unrelated kinases inhibited to >90% (403 non-mutated kinases) | inhibition at 0.1 µM (LRRK2) [%] | further results
1 | COc1cc(C(=O)N2CCC(N3CCN(C)CC3)CC2)ccc1Nc1ncc2c(n1)N(C)c1ccccc1C(=O)N2C [LRRK2-IN-1, 2-[2-methoxy-4-[4-(4-methylpiperazin-1-yl)piperidine-1-carbonyl]anilino]-5,11-dimethyl-pyrimido[4,5-b][1,4]benzodiazepin-6-one] |  |  |  |  |  |  | concentration showing an effect on antigen cross-presentation (DC2.4 SCR cells): 1 µM; cross-presentation mediated T cell proliferation (MART-1 T Cells): already at lowest concentration a stable increase; also recorded: increased the T cells proliferation; MV3 cancer cell viability (MV3 cancer cells): dose dependent reduction of MV3 cancer cell viability
2 | C[C@@H]1CN(c2cc(-c3n[nH]c4ccc(OC5(C)CC5)cc34)ncn2)C[C@H](C)O1 [MLi-2, cis-2,6-dimethyl-4-[6-[5-(1-methylcyclopropoxy)-1H-indazol-3-yl]pyrimidin-4-yl]morpholine] | increased T cell mediated cytotoxicity | inducing tumor growth inhibition; also recorded: significantly decrease MC-38 tumor growth | not modifying tumor growth; also recorded: not impacting MC-38 tumor growth | three | 3 |  | 
3 | Cn1cc(-c2c[nH]c3ncnc(N4CCOCC4)c23)cc1C#N [PFE-360, 1-methyl-4-(4-morpholino-7H-pyrrolo[2,3-d]pyrimidin-5-yl)pyrrole-2-carbonitrile] |  | inducing tumor growth inhibition; also recorded: significantly decrease MC-38 tumor growth | not modifying tumor growth; also recorded: not impacting MC-38 tumor growth | 9 | 9 | 100 | fold more selective than sunitinib (403 non-mutated kinases; at all concentration on average): ~2 fold
4 | CCNc1nc(Nc2cc(F)c(C(=O)N3CCOCC3)cc2OC)ncc1C(F)(F)F [compound 7915, [4-[[4-(ethylamino)-5-(trifluoromethyl)pyrimidin-2-yl]amino]-2-fluoro-5-methoxy-phenyl]-morpholino-methanone] | increased T cell mediated cytotoxicity |  |  |  |  |  | cross-presentation mediated T cell proliferation (OT-1 CD8a T cells; murine OT1 CD8a T cells, FIG. 4-H): already at lowest concentration a stable increase; tumor growth inhibition (MC-38 tumor cells [2]; MC-38, vs vehicle, 7915 300 mg/kg per os twice per day, day zero to day 15): 82%; MC-38 tumor growth in comparison with vehicle treated mice (MC-38 tumor cells [3]; GNE-7915 300 mg/kg per os twice per day, day zero to day 21, 300 mg/kg): not modifying tumor growth; also recorded: not impacting MC-38 tumor growth
5 | CNc1nc(Nc2cnn(C3CCN(C4COC4)CC3F)c2Cl)ncc1C(F)(F)F (stereo not drawn) [compound 9605, N2-[5-chloro-1-[3-fluoro-1-(oxetan-3-yl)-4-piperidyl]pyrazol-4-yl]-N4-methyl-5-(trifluoromethyl)pyrimidine-2,4-diamine] | increased T cell mediated cytotoxicity |  |  |  |  |  | concentration at which increased T cell proliferation is shown (OT-1 CD8a T cells; OT-1 CD8a T cells co-cultured with pre-treated mouse splenic dendritic cells): ≥ 100 nM
6 | CCN(CC)CCNC(=O)c1c(C)[nH]c(/C=C2\C(=O)Nc3ccc(F)cc32)c1C [sunitinib] |  |  |  |  |  | < 50 | 
